Our source for the Activity and inhibition values is ChEMBL document CHEMBL1255561, “A new NF-κB inhibitor based on the amino-epoxyquinol core of DHMEQ” (Bioorg Med Chem Lett, 2010).

Activity calls are given as the source filed them. No cut-off for these calls is given here.

Data set [1] concerns RAW264.7. Description: Cytotoxicity in mouse RAW264.7 cells at 30 ug/ml after 24 hrs by MTT assay. Type of data set: cell-based. The settings on record: raw264.7, 24 h. (In general: Tetrazolium dyes change colour on reduction, which living cells bring about.)
The subject of data set [2] is RAW264.7. The data set is described as follows: Inhibition of LPS-induced iNOS expression in mouse RAW264.7 cells at up to 30 ug/ml treated 1 hr before LPS challenge measured after 6 hrs by immunoblotting. Type of data set: functional, cell-based.
The test system of data set [3] is RAW264.7. Description: Inhibition of LPS-induced NF-kappaB activation in mouse RAW264.7 cells at up to 30 ug/ml after 30 mins by electrophoretic mobility shift assay. Type of data set: cell-based. (In EMSA bound probe runs differently from free probe, usually more slowly.)
Data set [4] deals with Transcription factor p65 (Homo sapiens) (UniProt Q04206). The data set is described as follows: Binding affinity to recombinant NF-kappaB transcription factor p65 subunit (1-325) at 4 equiv mol concentration after 1 hr by MALDI-TOF MS analysis.
The subject of data set [5] is RAW264.7. The data set is described as follows: Inhibition of LPS-induced nitric oxide production in mouse RAW264.7 cells treated 1 hr before LPS challenge measured after 24 hrs by Griess reaction. Type of data set: functional, cell-based.

Sequence of Transcription factor p65 (Homo sapiens) (Q04206 whole entry): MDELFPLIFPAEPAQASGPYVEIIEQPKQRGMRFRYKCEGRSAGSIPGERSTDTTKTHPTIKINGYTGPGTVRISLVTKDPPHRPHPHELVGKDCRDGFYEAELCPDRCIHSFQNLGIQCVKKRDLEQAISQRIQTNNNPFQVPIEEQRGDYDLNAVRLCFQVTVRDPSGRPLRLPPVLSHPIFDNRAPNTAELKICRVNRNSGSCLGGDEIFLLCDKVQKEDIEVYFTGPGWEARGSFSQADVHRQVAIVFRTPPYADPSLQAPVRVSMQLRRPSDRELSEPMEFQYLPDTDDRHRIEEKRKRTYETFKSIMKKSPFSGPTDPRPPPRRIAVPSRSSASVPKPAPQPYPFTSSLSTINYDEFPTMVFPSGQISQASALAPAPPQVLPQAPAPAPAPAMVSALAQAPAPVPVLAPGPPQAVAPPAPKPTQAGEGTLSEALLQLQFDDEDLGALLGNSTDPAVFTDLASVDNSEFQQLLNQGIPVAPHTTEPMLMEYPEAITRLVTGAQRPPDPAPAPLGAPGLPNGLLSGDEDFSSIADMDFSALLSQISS

On to `C=CCOC(=O)NC1=CC(=O)[C@H]2O[C@H]2[C@@H]1O` (relative stereo), for which, in data set [1], the Activity entry was “Toxic”. The inhibition entry in data set [2] and in data set [3] was “Active” each time. Besides, the result in data set [4] was inactive. In addition, the inhibition entry in data set [5] is “Dose-dependent effect”.

With `C=CCOC(=O)NC1=CC(=O)[C@H]2O[C@H]2[C@H]1O` (relative stereo), the inhibition result in data set [2] was “Active”. For the same molecule, the outcome in data set [4] was Active.
